Values quoted from earlier work, collected in patent US8057823B2, “Lipid nanocapsules, preparation process and use as medicine” (Universite d'Angers, priority 2000, dated 2011).

solubility in water | Compound
virtually insoluble | CC(=O)[C@H]1CC[C@H]2[C@@H]3CCC4=CC(=O)CC[C@]4(C)[C@H]3CC[C@]12C [progesterone]
virtually insoluble | CS(=O)(=O)OCCCCOS(C)(=O)=O [busulfan]
